# Data as given in patent US10676514B2, “CDCA1-derived peptide and vaccine containing same” (ONCOTHERAPY SCIENCE, INC., priority 2014, dated 2020).
# Test system: peptide-pulsed C1R-A11
# Assay: IFN-gamma ELISA of CTL lines and CTL clones (HLA-A*1101)
# Assay type: cell-based, human
# Details: for IFN-gamma production of CTL clones: CTL clones by limiting dilution
# Method: CTLs were propagated in culture using methods similar to those disclosed by Riddell et al. (Walter E A et al., N Engl J Med 1995, 333(16): 1038-44; Riddell S R et al., Nat Med 1996, 2(2): 216-23). The CTLs were co-cultured in a total of 25 ml AIM-V medium containing 5% AS (AIM-V/5% AS) and 40 ng/ml anti-CD3 antibody with two types of Mitomycin C-treated human B lymphoblastoid cell lines at 5×10^6 cells/flask. One day after beginning of the culturing, 120 IU/ml IL-2 was added to the culture. On days 5, 8 and 11, a fresh AIM-V/5% AS medium containing 30 IU/ml IL-2 was added to the culture (Tanaka H et al., Br J Cancer 2001, 84(1): 94-9; Umano Y et al., Br J Cancer 2001, 84(8): 1052-7; Uchida N et al., Clin Cancer Res 2004, 10(24): 8577-86; Suda T et al., Cancer Sci 2006, 97(5): 411-9; Watanabe T et al., Cancer Sci 2005, 96(8): 498-506).
# Dilution of CTLs was carried out to make 0.3, 1 and 3 cells/well in 96 round-bottomed microtiter plates (Nalge Nunc International). The CTLs were co-cultured with two types of Mitomycin C-treated human B lymphoblastoid cell lines at 1×10^4 cells/well in a total of 150 micro-l/well AIM-V/5% AS medium with 30 ng/ml anti-CD3 antibody and 125 IU/ml IL-2. Ten days later, IL-2 was added to the medium at 50 micro-l/well to reach a final concentration of 125 IU/ml. On day 14, the CTL activity was tested, and the CTL clones were propagated using the same method as described above (Uchida N et al., Clin Cancer Res 2004, 10(24): 8577-86; Suda T et al., Cancer Sci 2006, 97(5): 411-9; Watanabe T et al., Cancer Sci 2005, 96(8): 498-506).
# Specifically, peptide-pulsed C1R-A11 (1×10^4 cells/well) was prepared as the stimulator cell. The induced CTLs, i.e., CTL lines and CTL clones, were used as the responder cell. The IFN-gamma ELISPOT assay and IFN-gamma ELISA were performed according to the manufacturer's manual.
sequence,measurement,setting,value
KTKRLNELK (a peptide derived from CDCA1) [SEQ ID NO: 7],IFN-gamma production of CTL clones,"peptide-pulsed C1R-A11, listed as CDCA1-A1-9-219",potent IFN-gamma production
same,IFN-gamma production of CTL clones,"peptide-pulsed C1R-A11, listed as CDCA1-A11-9-219",Potent IFN-gamma production
same,IFN-gamma production of CTL lines,"CTL lines, peptide-pulsed vs non-pulsed target cells, HLA-A*1101",potent IFN-gamma production
